Each block holds one molecule with its values, some of them ahead of it.
Key:
Carbonic anhydrase 2 [1] = target: T1, Carbonic anhydrase 2 (Homo sapiens, UniProt P00918); assay: Inhibition of human Carbonic anhydrase 2
Carbonic anhydrase 1 [2] = target: T2, Carbonic anhydrase 1 (Homo sapiens, UniProt P00915); assay: Binding affinity to human Carbonic anhyrase 1 assessed as inhibition constant pre-incubated for 10 mins by stopped-flow instrument based assay
Carbonic anhydrase 2 [3] = target: T1, Carbonic anhydrase 2; assay: Binding affinity to human Carbonic anhyrase 2 assessed as inhibition constant pre-incubated for 10 mins by stopped-flow instrument based assay
Carbonic anhydrase 4 = Carbonic anhydrase 4 (Homo sapiens, UniProt P22748); assay: Binding affinity to human CA4 assessed as inhibition constant
MDA-MB-231 [4] = assay: Anticancer activity against human MDA-MB-231 cells assessed as reduction in cell viability under normoxia condition; assay type: functional, cell-based
MDA-MB-231 [5] = assay: Anticancer activity against human MDA-MB-231 cells assessed as reduction in cell viability under hypoxia condition; assay type: functional, cell-based
MCF7 [6] = assay: Anticancer activity against human MCF7 cells assessed as reduction in cell viability under normoxia condition; assay type: functional, cell-based
MCF7 [7] = assay: Anticancer activity against human MCF7 cells assessed as reduction in cell viability under hypoxia condition; assay type: functional, cell-based
[8] = Inhibition of Hsp70 (unknown origin); set-up: species or system Homo sapiens
Carbonic anhydrase 9 [9] = target: T3, Carbonic anhydrase 9 (Homo sapiens, UniProt Q16790); assay: Inhibition of human Carbonic anhydrase IX
Homo sapiens [10] = species: Homo sapiens; assay: Selectivity ratio of IC50 for human CA I to IC50 for human CA II
Carbonic anhydrase 1 [11] = target: T2, Carbonic anhydrase 1; assay: Binding affinity to human CA I assessed as inhibition constant
Carbonic anhydrase 2 [12] = target: T1, Carbonic anhydrase 2; assay: Binding affinity to human CA II assessed as inhibition constant
[13] = target: Carbonic anhydrase 5B, mitochondrial (Homo sapiens, UniProt Q9Y2D0); assay: Binding affinity to human CA VB-catalysed CO2 hydration activity assessed as inhibition constant pre-incubated for 15 mins by stopped-flow instrument method
Carbonic anhydrase 1 [14] = target: T2, Carbonic anhydrase 1; assay: Binding affinity to human CA I assessed as inhibition constant by spectrophotometric analysis
Carbonic anhydrase 1 [15] = target: T2, Carbonic anhydrase 1; assay: Inhibition of human Carbonic anhydrase 1
MCF7 [16] = assay: Cytotoxicity against human MCF7 cells assessed as reduction in cell viability incubated for 24 hrs by MTT assay; assay type: functional, cell-based; settings: MCF7, 24 h
Homo sapiens [17] = species: Homo sapiens; assay: Selectivity ratio of IC50 for human CA IX to IC50 for human CA II
Carbonic anhydrase 9 [18] = target: T3, Carbonic anhydrase 9; assay: Binding affinity human CA IX assessed as inhibition constant
MCF7 [19] = assay: cells; assay type: functional, cell-based; settings: Homo sapiens
HCT-116 = assay: cells; assay type: functional, cell-based; settings: Homo sapiens
Description: Cytotoxicity against human HCT-116 cells

Carbonic anhydrase 12 [20] = target: T4, Carbonic anhydrase 12 (Homo sapiens, UniProt O43570); assay: Binding affinity to human CA XII assessed as inhibition constant
HT-29 = assay: Cytotoxicity against human HT-29 cells assessed as reduction in cell viability incubated for 24 hrs by MTT assay; assay type: functional, cell-based; settings: HT-29, 24 h
PC-3 = assay: Cytotoxicity against human PC-3 cells assessed as reduction in cell viability incubated for 24 hrs by MTT assay; assay type: functional, cell-based; settings: PC-3, 24 h
MCF7 [21] = assay: Antiproliferative activity against human MCF7 cells assessed as reduction in cell viability by SRB assay; assay type: functional, cell-based
A549 = assay: Antiproliferative activity against human A549 cells assessed as reduction in cell viability by SRB assay; assay type: functional, cell-based
HepG2 [22] = assay: Antiproliferative activity against human HepG2 cells assessed as reduction in cell viability by SRB assay; assay type: functional, cell-based
Carbonic anhydrase 2 [23] = target: T1, Carbonic anhydrase 2; assay: Binding affinity to human CA II assessed as inhibition constant by spectrophotometric analysis
MDA-MB-231 [24] = assay: Anticancer activity against human MDA-MB-231 cells assessed as reduction in cell viability measured after 72 hrs by MTT assay; assay type: functional, cell-based; settings: MDA-MB-231, 72 h
HepG2 [25] = assay: Anticancer activity against human HepG2 cells assessed as reduction in cell viability measured after 72 hrs by MTT assay; assay type: functional, cell-based; settings: HepG2, 72 h
MCF7 [26] = assay: Anticancer activity against human MCF7 cells assessed as reduction in cell viability measured after 72 hrs by MTT assay; assay type: functional, cell-based; settings: MCF7, 72 h
Carbonic anhydrase 9 [27] = target: T3, Carbonic anhydrase 9; assay: Binding affinity to human recombinant CA IX assessed as inhibition constant
Carbonic anhydrase 12 [28] = target: T4, Carbonic anhydrase 12; assay: Binding affinity to human recombinant CA XII assessed as inhibition constant
Carbonic anhydrase 2 [29] = target: T1, Carbonic anhydrase 2; assay: Binding affinity to human CA II assessed as inhibition constant pre-incubated for 15 mins by stopped-flow CO2-hydrase assay method

T2 sequence (P00915 whole entry): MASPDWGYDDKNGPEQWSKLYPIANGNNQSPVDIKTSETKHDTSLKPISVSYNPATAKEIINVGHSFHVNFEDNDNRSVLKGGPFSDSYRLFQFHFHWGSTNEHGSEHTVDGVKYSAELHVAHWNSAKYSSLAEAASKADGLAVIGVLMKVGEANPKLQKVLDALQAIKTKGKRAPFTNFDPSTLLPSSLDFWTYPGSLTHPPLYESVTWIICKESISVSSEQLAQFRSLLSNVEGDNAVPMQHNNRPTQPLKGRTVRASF
Chain of Carbonic anhydrase 5B, mitochondrial (Q9Y2D0 whole entry): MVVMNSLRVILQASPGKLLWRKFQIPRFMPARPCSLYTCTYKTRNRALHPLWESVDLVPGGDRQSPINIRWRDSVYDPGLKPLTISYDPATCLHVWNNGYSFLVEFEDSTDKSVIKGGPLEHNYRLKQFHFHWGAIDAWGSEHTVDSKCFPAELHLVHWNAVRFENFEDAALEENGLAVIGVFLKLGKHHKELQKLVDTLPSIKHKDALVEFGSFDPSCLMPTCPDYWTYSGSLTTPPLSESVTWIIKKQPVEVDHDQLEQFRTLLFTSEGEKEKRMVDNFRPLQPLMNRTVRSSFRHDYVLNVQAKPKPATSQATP
T4 sequence (O43570 whole entry): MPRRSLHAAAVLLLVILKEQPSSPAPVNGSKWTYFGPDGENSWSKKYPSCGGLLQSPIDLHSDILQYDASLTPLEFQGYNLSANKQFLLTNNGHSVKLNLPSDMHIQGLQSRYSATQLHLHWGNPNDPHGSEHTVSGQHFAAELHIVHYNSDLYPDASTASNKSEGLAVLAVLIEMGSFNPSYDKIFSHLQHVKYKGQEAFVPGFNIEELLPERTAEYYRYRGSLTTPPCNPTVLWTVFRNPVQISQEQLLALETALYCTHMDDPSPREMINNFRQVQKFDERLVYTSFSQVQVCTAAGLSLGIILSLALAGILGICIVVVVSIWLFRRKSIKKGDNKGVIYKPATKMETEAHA
Chain of Carbonic anhydrase 4 (P22748 whole entry): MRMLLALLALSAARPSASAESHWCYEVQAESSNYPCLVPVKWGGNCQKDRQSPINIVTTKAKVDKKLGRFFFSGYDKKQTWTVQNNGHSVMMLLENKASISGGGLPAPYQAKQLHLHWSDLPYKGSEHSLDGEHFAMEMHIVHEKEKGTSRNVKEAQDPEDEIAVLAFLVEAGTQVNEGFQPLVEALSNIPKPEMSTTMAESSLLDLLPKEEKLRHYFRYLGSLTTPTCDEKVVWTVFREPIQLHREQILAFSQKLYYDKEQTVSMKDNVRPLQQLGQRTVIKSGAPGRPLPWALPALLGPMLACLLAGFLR

Compound: CCCCCCCCn1c2ccccc2c2cc(/N=C/c3cccc(O)c3O)ccc21
IC50 (Carbonic anhydrase 2 [1]): 21800 nM

Compound: Cc1c(/C=N/Nc2nc(-c3ccc(F)cc3)cs2)nnn1-c1cccc(S(N)(=O)=O)c1
Ki (Carbonic anhydrase 4): 88 nM

Compound: COc1cccc(NC(=O)Nc2cccc(OC)c2)c1
IC50 (MDA-MB-231 [4]): 6300 nM | IC50 (MDA-MB-231 [5]): 12400 nM | IC50 (MCF7 [6]): 3700 nM | IC50 (MCF7 [7]): 1100 nM | IC50 [8]: 15300 nM

Compound: Clc1ccccc1-c1nc2cc(-c3ccc4[nH]c(-c5ccccc5Cl)nc4c3)ccc2[nH]1
IC50 (Carbonic anhydrase 9 [9]): 5230 nM

Compound: COC(=O)[C@H]1O[C@@H](NC(=O)c2ccc(S(N)(=O)=O)cc2)[C@H](O)[C@@H](O)[C@@H]1O
Ratio IC50 (Homo sapiens [10]): 44.4

Compound: NS(=O)(=O)c1ccc(C(=O)Nc2nc(C(=O)OCCCN3CCOCC3)cs2)cc1
Ki (Carbonic anhydrase 1 [11]): 27.3 nM | Ki (Carbonic anhydrase 2 [12]): 6.92 nM

Compound: Cc1ccc(NC(=O)SOS(N)(=O)=O)cc1
Ki [13]: 462 nM

Compound: CCCCCCCCn1c2ccccc2c2cc(/N=C/c3ccc(O)c(O)c3)ccc21
IC50 (Carbonic anhydrase 1 [15]): 32100 nM

Compound: Cc1ccc(C(C)C)cc1OCc1cn(CCCCCCOc2ccc3ccc(=O)oc3c2)nn1
IC50 (MCF7 [16]): 2480 nM

Compound: COc1ccc(C2C(C#N)=C(N)Oc3c2c(C)nn3-c2ccc(S(N)(=O)=O)cc2)cc1O (stereo unspecified)
Ki (Carbonic anhydrase 9 [18]): 12 nM | IC50 (MCF7 [19]): 1880 nM | IC50 (HCT-116): 4620 nM

Compound: N=C(N)NS(=O)(=O)c1ccc(/N=N/Nc2c(F)c(F)c(F)c(F)c2F)cc1
Ki (Carbonic anhydrase 2 [12]): 8.16 nM

Compound: Cc1nn(-c2ccc(S(N)(=O)=O)cc2)c2c1C(c1ccc(F)cc1F)C(C#N)=C(N)O2 (stereo unspecified)
Ki (Carbonic anhydrase 9 [18]): 19 nM | IC50 (MCF7 [19]): 1690 nM | IC50 (HCT-116): 1300 nM

Compound: Cc1ccc(C(C)C)c(OCc2cn(CCCCOc3ccc4ccc(=O)oc4c3)nn2)c1
IC50 (HT-29): 12100 nM | IC50 (PC-3): 9400 nM

Compound: CC(=O)C(C)/C(C)=N/NC(=O)C12CC3CC(CC(C3)C1)C2 (stereo unspecified)
IC50 (MCF7 [21]): < 5000 nM | IC50 (A549): < 5000 nM | IC50 (HepG2 [22]): < 5000 nM

Compound: Cc1ccc(C)c(NC(=O)SOS(N)(=O)=O)c1
Ki [13]: 516 nM

Compound: Cc1sc2ncnc(Nc3ccc(S(N)(=O)=O)cc3)c2c1C
Ki (Carbonic anhydrase 9 [18]): 16.1 nM

Compound: NS(=O)(=O)c1ccc(C(=O)Nc2nc(C(=O)OCCN3CCOCC3)cs2)cc1
Ki (Carbonic anhydrase 1 [11]): 49.8 nM | Ki (Carbonic anhydrase 2 [12]): 5.97 nM

Compound: CCOc1ccccc1NC(=O)SOS(N)(=O)=O
Ki [13]: 271 nM

Compound: Cn1c(N)c(NCc2ccc(Br)cc2O)c(=O)n(C)c1=O
Ki (Carbonic anhydrase 1 [11]): 36.1 nM

Compound: Cc1ccc(-c2c(/C=N/NC(=O)C34CC5CC(CC(C5)C3)C4)n[nH]c2-c2ccccc2)cc1
IC50 (MCF7 [21]): < 5000 nM | IC50 (A549): < 5000 nM | IC50 (HepG2 [22]): < 5000 nM

Compound: COc1ccccc1NC(=O)SOS(N)(=O)=O
Ki [13]: 345 nM

Compound: Nc1nn(C(=O)C23CC4CC(CC(C4)C2)C3)c(N)c1/N=N/c1ccccc1
IC50 (MCF7 [21]): < 5000 nM | IC50 (HepG2 [22]): < 5000 nM | Ki (Carbonic anhydrase 9 [27]): 85 nM | Ki (Carbonic anhydrase 12 [28]): 140 nM

Compound: Cn1c(N)c(NCc2cc(I)ccc2O)c(=O)n(C)c1=O
Ki (Carbonic anhydrase 2 [12]): 16.3 nM

Compound: CCOC(=O)c1sc2ncnc(Nc3ccc(S(N)(=O)=O)cc3)c2c1C
Ki (Carbonic anhydrase 2 [12]): 8.6 nM | Ki (Carbonic anhydrase 9 [18]): 13.8 nM | Ki (Carbonic anhydrase 12 [20]): 19 nM

Compound: NS(=O)(=O)c1ccc(-c2ccc(-c3cnc(C(=O)N4CCNCC4)o3)s2)cc1
Ki (Carbonic anhydrase 2 [29]): 4 nM

The remaining lines, values ahead:

Ki (Carbonic anhydrase 1 [2]): 38.3 nM | Ki (Carbonic anhydrase 2 [3]): 716 nM
Compound: COc1cccc(C(=O)/C=C/c2cn(Cc3cn(-c4ccc(S(N)(=O)=O)cc4)nn3)c3ccccc23)c1

Ki (Carbonic anhydrase 1 [2]): 50.4 nM | Ki (Carbonic anhydrase 2 [3]): 36.2 nM
Compound: Cc1ccc(C(=O)/C=C/c2cn(Cc3cn(-c4ccc(S(N)(=O)=O)cc4)nn3)c3ccccc23)cc1

Ki (Carbonic anhydrase 1 [11]): 67.9 nM
Compound: NC1=C(n2c(-c3ccc(Cl)cc3)cs/c2=N\C(=O)c2c(F)cccc2F)C(=O)c2ccccc2C1=O

Ki (Carbonic anhydrase 1 [14]): 14 nM
Compound: O=C(NC(=S)Nc1ccc(S(=O)(=O)Nc2nccs2)cc1)c1ccc(F)cc1

Ki (Carbonic anhydrase 1 [14]): 20.7 nM
Compound: O=C(NC(=S)Nc1ccc(S(=O)(=O)Nc2nccs2)cc1)c1ccccc1

Ki (Carbonic anhydrase 1 [11]): 6.44 nM
Compound: CC(=O)c1ccc(N/N=N/c2ccc(S(=O)(=O)NC(=N)N)cc2)cc1

Ratio IC50 (Homo sapiens [10]): 14.3 | Ratio IC50 (Homo sapiens [17]): 7.42 | Ki (Carbonic anhydrase 9 [18]): 19 nM
Compound: Cc1nn(-c2ccc(S(N)(=O)=O)cc2)c2c1C(c1c(F)cccc1F)C(C#N)=C(N)O2 (stereo unspecified)

Ki (Carbonic anhydrase 1 [11]): 40.6 nM
Compound: C/C(=N\Nc1nc(-c2ccc(C)cc2)cs1)c1nnn(-c2ccc(S(N)(=O)=O)cc2)c1C

Ki (Carbonic anhydrase 9 [18]): 4.1 nM | Ki (Carbonic anhydrase 12 [20]): 9.1 nM | IC50 (MDA-MB-231 [4]): 6300 nM | IC50 (MDA-MB-231 [5]): 12500 nM | IC50 (MCF7 [6]): 4600 nM | IC50 (MCF7 [7]): 14400 nM | IC50 [8]: 19400 nM
Compound: COc1cccc(NC(=O)Nc2ccc(S(N)(=O)=O)cc2)c1

Ki (Carbonic anhydrase 2 [12]): 55.3 nM
Compound: COc1ccc(-c2cs/c(=N\C(=O)c3c(F)cccc3F)n2C2=C(N)C(=O)c3ccccc3C2=O)cc1

IC50 (Carbonic anhydrase 2 [1]): 21.2 nM
Compound: NS(=O)(=O)c1ccc(CCNC(=O)c2ccc3c(c2)C(=O)c2ccccc2C3=O)cc1

Ki (Carbonic anhydrase 2 [23]): 8.15 nM
Compound: Cc1ccnc(NS(=O)(=O)c2ccc(NC(=S)NC(=O)c3ccc(F)cc3)cc2)n1

Ki (Carbonic anhydrase 1 [11]): 38.5 nM | Ki (Carbonic anhydrase 2 [12]): 7.36 nM
Compound: CCOC(=O)c1sc(NC(=O)c2ccc(S(N)(=O)=O)cc2)nc1C(F)(F)F

Ki (Carbonic anhydrase 1 [2]): 18.8 nM | Ki (Carbonic anhydrase 2 [3]): 468 nM
Compound: NS(=O)(=O)c1ccc(-n2cc(Cn3cc(/C=C/C(=O)c4ccc(Br)cc4)c4ccccc43)nn2)cc1

IC50 (MDA-MB-231 [24]): 46200 nM | IC50 (HepG2 [25]): 28100 nM | IC50 (MCF7 [26]): 69400 nM
Compound: NS(=O)(=O)c1ccc(NC(=S)NC(=O)c2ccc3c(c2)C(=O)c2ccccc2C3=O)cc1

Ki (Carbonic anhydrase 1 [11]): 45.9 nM | Ki (Carbonic anhydrase 2 [12]): 6.51 nM
Compound: NS(=O)(=O)c1ccc(C(=O)Nc2ncc(C(=O)NCCN3CCOCC3)s2)cc1
